In ChEMBL document CHEMBL1201862, “PubChem BioAssay data set” (2004):
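Five concentrations, 48 hours, 96-well plates. The concentration for 50% growth inhibition is given as GI50.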 The source made the active and inactive calls. Cut-off read from the data, not from the text of the source: active = GI50 up to about 1.1 µM and inactive = higher.

Assays:
Test in all cases: inhibition of tumour cell growth, NCI panel, 48 h
[1] = system: SR
[2] = system: HL-60
[3] = system: NCI-H23
[4] = system: NCI-H522
[5] = system: RXF 393
[6] = system: TK-10
[7] = system: SNB-78
[8] = system: UACC-62
[9] = system: KM-20L2
[10] = system: XF498
[11] = system: M14
[12] = system: LOX IMVI
[13] = system: A549
[14] = system: OVCAR-3
[15] = system: OVCAR-8
[16] = system: SW-620
[17] = system: LXFL 529
[18] = system: HCT-116
[19] = system: K562
[20] = system: SK-MEL-2
[21] = system: CCRF-CEM
[22] = system: KM12
[23] = system: NCI-H226
[24] = system: UACC-257
[25] = system: HOP-92
[26] = system: MOLT-4
[27] = system: A498
[28] = system: ACHN
[29] = system: U-251
[30] = system: HCT-15
[31] = system: SN12C
[32] = system: SF-295
[33] = system: DMS-273
[34] = system: HCC 2998
[35] = system: SK-MEL-5
[36] = system: OVCAR-5
[37] = system: NCI-H460
[38] = system: M19-MEL
[39] = system: HT-29
[40] = system: SF-268
[41] = system: SK-MEL-28
[42] = system: SNB-19
[43] = system: HOP-62
[44] = system: IGROV-1
[45] = system: SF-539
[46] = system: EKVX
[47] = system: UO-31
[48] = system: SK-OV-3
[49] = system: SNB-75
[50] = system: DLD-1
[51] = system: COLO 205
[52] = system: RPMI-8226
[53] = system: DMS-114
[54] = system: CAKI-1
[55] = system: OVCAR-4
[56] = system: Malme-3M
[57] = system: 786-0

In the case of `CCN(CC)/[N+]([O-])=N/OC`, the GI50 [1] is reported as > 100 µM (inactive), the GI50 [2] is reported as > 100 µM (inactive) and the GI50 [3] is reported as > 100 µM (inactive). For the same molecule, the GI50 [4] was > 100 µM (inactive), the GI50 [5] was > 100 µM (inactive) and the GI50 [6] was > 100 µM (inactive). The GI50 [7] was > 100 µM (inactive), the GI50 [8] was > 100 µM (inactive) and the GI50 [9] was > 100 µM (inactive). The GI50 [10] was > 100 µM (inactive), the GI50 [11] was > 100 µM (inactive) and the GI50 [12] was > 100 µM (inactive). For the same molecule, the GI50 [13] was > 100 µM (inactive), the GI50 [14] was > 100 µM (inactive) and the GI50 [15] was > 100 µM (inactive). For the same molecule, the GI50 [16] was > 100 µM (inactive), the GI50 [17] was > 100 µM (inactive) and the GI50 [18] was > 100 µM (inactive). For the same molecule, the GI50 [19] was > 100 µM (inactive), the GI50 [20] was > 100 µM (inactive) and the GI50 [21] was > 100 µM (inactive). The GI50 [22] was > 100 µM (inactive), the GI50 [23] was > 100 µM (inactive) and the GI50 [24] was > 100 µM (inactive). The GI50 [25] was > 100 µM (inactive), the GI50 [26] was > 100 µM (inactive) and the GI50 [27] was > 100 µM (inactive). The GI50 [28] was > 100 µM (inactive), the GI50 [29] was > 100 µM (inactive) and the GI50 [30] was over 100 µM. For the same molecule, the GI50 [31] was > 100 µM (inactive), the GI50 [32] was > 100 µM (inactive) and the GI50 [33] was > 100 µM (inactive). The GI50 [34] was > 100 µM (inactive), the GI50 [35] was > 100 µM (inactive) and the GI50 [36] was > 100 µM (inactive). For the same molecule, the GI50 [37] was > 100 µM (inactive), the GI50 [38] was > 100 µM (inactive) and the GI50 [39] was > 100 µM (inactive). The GI50 [40] was > 100 µM (inactive), the GI50 [41] was > 100 µM (inactive) and the GI50 [42] was > 100 µM (inactive). For the same molecule, the GI50 [43] was > 100 µM (inactive), the GI50 [44] was > 100 µM (inactive) and the GI50 [45] was > 100 µM (inactive). The GI50 [46] was > 100 µM (inactive), the GI50 [47] was > 100 µM (inactive) and the GI50 [48] was > 100 µM (inactive).
`O=C1NC(c2ccc(O)cc2)C2CCC1C2` (stereo not given) was tested, and the GI50 [1] was > 100 µM (inactive), the GI50 [2] was > 100 µM (inactive) and the GI50 [3] was > 100 µM (inactive). For the same molecule, the GI50 [4] was > 100 µM (inactive), the GI50 [6] was > 100 µM (inactive) and the GI50 [7] was > 100 µM (inactive). The GI50 [8] was > 100 µM (inactive), the GI50 [9] was > 100 µM (inactive) and the GI50 [10] was > 100 µM (inactive). For the same molecule, the GI50 [11] was > 100 µM (inactive), the GI50 [13] was > 100 µM (inactive) and the GI50 [49] was > 100 µM (inactive). For the same molecule, the GI50 [14] was > 100 µM (inactive), the GI50 [15] was > 100 µM (inactive) and the GI50 [16] was > 100 µM (inactive). For the same molecule, the GI50 [17] was > 100 µM (inactive), the GI50 [18] was > 100 µM (inactive) and the GI50 [19] was > 100 µM (inactive). The GI50 [50] was > 100 µM (inactive), the GI50 [20] was > 100 µM (inactive) and the GI50 [21] was > 100 µM (inactive). For the same molecule, the GI50 [22] was > 100 µM (inactive), the GI50 [23] was > 100 µM (inactive) and the GI50 [24] was > 100 µM (inactive). For the same molecule, the GI50 [51] was > 100 µM (inactive), the GI50 [25] was > 100 µM (inactive) and the GI50 [26] was > 100 µM (inactive). The GI50 [27] was > 100 µM (inactive), the GI50 [28] was > 100 µM (inactive) and the GI50 [29] was > 100 µM (inactive). The GI50 [52] was > 100 µM (inactive), the GI50 [31] was > 100 µM (inactive) and the GI50 [53] was > 100 µM (inactive). The GI50 [32] was > 100 µM (inactive), the GI50 [34] was > 100 µM (inactive) and the GI50 [35] was > 100 µM (inactive). The GI50 [54] was > 100 µM (inactive), the GI50 [36] was > 100 µM (inactive) and the GI50 [37] was > 100 µM (inactive). For the same molecule, the GI50 [38] was > 100 µM (inactive), the GI50 [39] was > 100 µM (inactive) and the GI50 [40] was > 100 µM (inactive). For the same molecule, the GI50 [41] was > 100 µM (inactive), the GI50 [55] was > 100 µM (inactive) and the GI50 [42] was > 100 µM (inactive). The GI50 [43] was > 100 µM (inactive), the GI50 [56] was > 100 µM (inactive) and the GI50 [44] was > 100 µM (inactive). The GI50 [46] was > 100 µM (inactive), the GI50 [47] was > 100 µM (inactive) and the GI50 [57] was > 100 µM (inactive). For the same molecule, the GI50 [48] was > 100 µM (inactive).
`COC(=O)C1CCc2nnc(-c3ccccc3)n21` (stereo not given) was tested, and the GI50 [2] was > 100 µM (inactive), the GI50 [3] was > 100 µM (inactive) and the GI50 [4] was > 100 µM (inactive). For the same molecule, the GI50 [5] was > 100 µM (inactive), the GI50 [6] was > 100 µM (inactive) and the GI50 [7] was > 100 µM (inactive). For the same molecule, the GI50 [8] was > 100 µM (inactive), the GI50 [9] was > 100 µM (inactive) and the GI50 [10] was > 100 µM (inactive). For the same molecule, the GI50 [11] was > 100 µM (inactive), the GI50 [12] was > 100 µM (inactive) and the GI50 [13] was > 100 µM (inactive). The GI50 [49] was > 100 µM (inactive), the GI50 [14] was > 100 µM (inactive) and the GI50 [15] was > 100 µM (inactive). The GI50 [16] was > 100 µM (inactive), the GI50 [17] was > 100 µM (inactive) and the GI50 [18] was > 100 µM (inactive). The GI50 [19] was > 100 µM (inactive), the GI50 [50] was > 100 µM (inactive) and the GI50 [20] was > 100 µM (inactive). For the same molecule, the GI50 [21] was > 100 µM (inactive), the GI50 [22] was > 100 µM (inactive) and the GI50 [23] was > 100 µM (inactive). For the same molecule, the GI50 [24] was > 100 µM (inactive), the GI50 [51] was > 100 µM (inactive) and the GI50 [25] was > 100 µM (inactive). For the same molecule, the GI50 [26] was > 100 µM (inactive), the GI50 [27] was > 100 µM (inactive) and the GI50 [28] was > 100 µM (inactive). For the same molecule, the GI50 [29] was > 100 µM (inactive), the GI50 [30] was over 100 µM and the GI50 [52] was > 100 µM (inactive). The GI50 [31] was > 100 µM (inactive), the GI50 [53] was > 100 µM (inactive) and the GI50 [32] was > 100 µM (inactive). The GI50 [33] was > 10 µM (inactive), the GI50 [34] was > 100 µM (inactive) and the GI50 [35] was > 100 µM (inactive). The GI50 [54] was > 100 µM (inactive), the GI50 [36] was > 100 µM (inactive) and the GI50 [37] was > 100 µM (inactive). For the same molecule, the GI50 [38] was > 100 µM (inactive), the GI50 [39] was > 100 µM (inactive) and the GI50 [40] was > 100 µM (inactive). The GI50 [41] was > 100 µM (inactive), the GI50 [55] was > 100 µM (inactive) and the GI50 [42] was > 100 µM (inactive). For the same molecule, the GI50 [43] was > 100 µM (inactive), the GI50 [56] was > 100 µM (inactive) and the GI50 [44] was > 100 µM (inactive). For the same molecule, the GI50 [45] was > 100 µM (inactive), the GI50 [46] was > 100 µM (inactive) and the GI50 [47] was > 100 µM (inactive). For the same molecule, the GI50 [57] was > 100 µM (inactive).
